Results reported in patent US4281121A, “1,3,4-Thiadiazole-2-carboxylic acid derivatives, process for making the same and fungicidal and nematocidal compositions containing same” (Schering Aktiengesellschaft, priority 1978, dated 1981).
Read-outs that look alike come from different tables or passages of the source.

Legend:
Fusarium avenaceum = test: Inhibition of fungus in a nutrient solution: Fusarium avenaceum; format: cell-based; details: 0.004%, 6 days at 21-23° C.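 Further: 0 means no fungus growth and higher grades mean more surface covered.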
Summary of the method: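 Grape juice/water (1:1) nutrient solution mixed with powdered test agent, then inoculated with conidia. Surface fungal growth scored on a 0–5 scale after 6 days at 21–23 °C.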

Penicillium digitatum = test: Inhibition of fungus in a nutrient solution: Penicillium digitatum; format: cell-based; details: 6 days at 21-23° C.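 Further: 0 means no fungus growth and higher grades mean more surface covered.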
Ustilago avenae = test: Oat seed treatment for Ustilago avenae; format: in vivo; details: 100 g active agent/100 kg; 10 weeks
Tilletia caries = test: Seed treatment in open field tests regarding infestation by Tilletia caries (oats); format: in vivo; details: summer oats; 50 g active agent/100 kg; about 4 months
Ustilago nuda tritici = test: Treatment of wheat seeds in open field tests against Ustilago nuda tritici; format: in vivo; details: winter wheat; 100 g/100 kg seeds; eight months
Description: (§1) Treatment of wheat and barley seeds in open field tests against Ustilago nuda
(§2) Winter wheat seeds which had been infested with the smut cause Ustilago nuda tritici and winter barley seeds infested with Ustilago nuda nuda were treated with the agents listed in the table below and were seeded at seeding time in open fields. As a control untreated seeds were likewise included in the seed. After eight months the affected heads were counted for each test group and their proportion was calculated in order to find the fungicidal activity by the following formula: [formula]
(§3) The active compounds were employed in the form of 20% concentration powder compositions.

Pythium ultimum = test: Threshold concentration test for use of the compounds against Pythium ultimum (infested soil, garden peas); format: in vivo; parameters: key to root evaluation (1-4): 4: white roots without fungous necrosis; 3: white roots, minor fungous necrosis; 2: brown roots, already more pronounced fungous necrosis; 1: heavy fungous necrosis, roots rotted; details: for root evaluation (1-4): 3 weeks; for number of sound peas: 20 grains per dish, 3 weeks at 20-24° C.
Summary of the method: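 Pulverulent agents at 20% concentration mixed evenly into soil heavily infested with Pythium ultimum, then garden peas ('Wunder von Kelvedon', 20 per dish) sown at once. After three weeks at 20–24 °C in a hothouse, sound peas counted and roots scored on a 1–4 scale.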

Fusarium nivale = test: Treatment of rye seeds against Fusarium nivale; format: in vivo; details: 100 g/100 kg; about 4 weeks
Helminthosporium gram = details: about 5 weeks
Description: Treatment of barley seeds infested with Helminthosporium gram
After emergence, the plants were subjected to illumination for 12 hours per day. After about 5 weeks the infested plants were counted and the total number of plants for each test were also counted. The active agents tested were used as pulverulent compositions.

Piricularia oryzae = format: in vivo; details: 5 days
Ustilago nuda nuda = test: Treatment of barley seeds in open field tests against Ustilago nuda nuda; format: in vivo; details: winter barley; 100 g/100 kg seeds; eight months
Description: as §1, §2, §3

Venturia inaequalis = test: Prophylactic leaf treatment of apples in open field test against Venturia inaequalis; format: in vivo; details: 3 weeks
Botrytis cinerea = test: Inhibition of fungus in a nutrient solution: Botrytis cinerea; format: cell-based; details: 6 days at 21-23° C.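 Further: 0 means no fungus growth and higher grades mean more surface covered.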
Alternaria solani = test: Inhibition of fungus in a nutrient solution: Alternaria solani; format: cell-based; details: 6 days at 21-23° C.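 Further: 0 means no fungus growth and higher grades mean more surface covered.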
[1] = system: Helminthosporium gramineum; test: Seed treatment in open field tests for infestation by Helminthosporium gramineum (barley); format: in vivo
Description: Seed treatment in open field tests for infestation by Helminthosporium gramineum
The active agents were used in the form of pulverulent compositions. After about 8 months in case of winter barley and after about 3 months in case of summer barley the infested plants were counted and the activity was calculated by the formula [formula]

Question: For `CC(C)CS(=O)(=O)c1nnc(C(N)=O)s1` [5-isobutylsulfonyl-1,3,4-thiadiazole-2-carboxamide], which “fungus development on the surface of the nutrient solution (0-5)” value (shortened to “fungus development on the surface”) (Fusarium avenaceum) is on record?
Answer: 0

Question: What about the “fungus development on the surface” value (Penicillium digitatum; 0.002%) of the same compound?
Answer: 1

Question: And the “fungus development on the surface” value (Penicillium digitatum; 0.004%)?
Answer: 0

Question: And the “% activity” value (Ustilago avenae)?
Answer: 87%

Question: And the “% activity” value (Tilletia caries)?
Answer: 99%

Question: What about the “% activity” value (Ustilago nuda tritici) of the same compound?
Answer: 75%

Question: And the “root evaluation (1-4)” value (Pythium ultimum; 20 mg/l soil)?
Answer: 1

Question: And the “number of sound peas” value (Pythium ultimum; 20 mg/l soil)?
Answer: 15

Question: And the “root evaluation (1-4)” value (Pythium ultimum; 40 mg/l soil)?
Answer: 4

Question: What about the “number of sound peas” value (Pythium ultimum; 40 mg/l soil) of the same compound?
Answer: 18

Question: And the “root evaluation (1-4)” value (Pythium ultimum; 80 mg/l soil)?
Answer: 4

Question: What about the “number of sound peas” value (Pythium ultimum; 80 mg/l soil) of the same compound?
Answer: 18

Question: And the “% activity” value (Fusarium nivale)?
Answer: 99.2%

Question: And the “% activity” value (Helminthosporium gram; 20 g active agent per 100 kg)?
Answer: 60%

Question: What about the “% activity” value (Helminthosporium gram; 50 g active agent per 100 kg) of the same compound?
Answer: 87%

Question: And the “% activity” value (Piricularia oryzae; concentration of active agent 0.02 (percentages))?
Answer: 65%

Question: And the “% activity” value (Piricularia oryzae; concentration of active agent 0.1 (percentages))?
Answer: 90%

Question: What about the “% activity” value (Ustilago nuda nuda) of the same compound?
Answer: 79%

Question: What about the “% activity” value (Venturia inaequalis; concentration of active agent 0.005 (in gram)) of the same compound?
Answer: 87%

Question: And the “% activity” value (Venturia inaequalis; concentration of active agent 0.025 (in gram))?
Answer: 95%

Question: And the “fungus development on the surface” value (Botrytis cinerea; 0.002%)?
Answer: 2 (5 to 10% of the surface covered by the fungus turf)

Question: What about the “fungus development on the surface” value (Botrytis cinerea; 0.004%) of the same compound?
Answer: 1

Question: And the “fungus development on the surface” value (Alternaria solani; 0.002%)?
Answer: 0

Question: What about the “fungus development on the surface” value (Alternaria solani; 0.004%) of the same compound?
Answer: 0

Question: And the “% activity” value ([1]; summer barley, 50 g active agent/100 kg barley, about 3 months)?
Answer: 99.5%

Question: What about the “% activity” value ([1]; summer barley, 100 g active agent/100 kg barley, about 3 months) of the same compound?
Answer: 100%

Question: And the “% activity” value ([1]; winter barley, 50 g active agent/100 kg barley, about 8 months)?
Answer: 100%

Question: And the “% activity” value ([1]; winter barley, 75 g active agent/100 kg barley, about 8 months)?
Answer: 100%

Question: What about the “% activity” value ([1]; winter barley, 100 g active agent/100 kg barley, about 8 months) of the same compound?
Answer: 100%
